Values quoted from earlier work as cited in patent US7608286B2, “Phyto-nutraceutical synergistic composition for hyperlipedemic condition” (priority 2006, dated 2009).

Experiments:
[1] = system: bacterial resistance mechanism (multidrug pump); conditions: in the presence of 5′-MHC
rats = conditions: rat, in vivo
[2] = target: T1, lanosterol 14alpha -demethylase (Homo sapiens, UniProt Q16850)
T1 sequence (Q16850 1-509): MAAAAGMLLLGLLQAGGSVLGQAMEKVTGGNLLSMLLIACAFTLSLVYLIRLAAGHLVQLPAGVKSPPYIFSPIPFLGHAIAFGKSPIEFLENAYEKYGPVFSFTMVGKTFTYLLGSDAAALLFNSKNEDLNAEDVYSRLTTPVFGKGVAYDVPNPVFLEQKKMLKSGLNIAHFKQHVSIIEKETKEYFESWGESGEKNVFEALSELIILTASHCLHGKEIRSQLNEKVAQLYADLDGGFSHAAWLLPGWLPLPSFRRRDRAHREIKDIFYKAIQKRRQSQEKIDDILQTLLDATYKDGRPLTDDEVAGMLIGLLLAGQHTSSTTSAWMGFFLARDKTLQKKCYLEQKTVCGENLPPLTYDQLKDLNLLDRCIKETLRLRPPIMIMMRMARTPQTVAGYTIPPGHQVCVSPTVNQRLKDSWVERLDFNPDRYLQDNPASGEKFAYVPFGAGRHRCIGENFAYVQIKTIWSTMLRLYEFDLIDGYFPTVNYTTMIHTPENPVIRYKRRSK

[3] = system: participants having low blood concentrations of HDL-C; conditions: time-release
[4] = system: normolipidemic and hyperlipidemic patients with low HDL-C levels; conditions: low dose (1.5 g/d)
[5] = system: apolipoprotein E-null mice; conditions: evolving versus established
[6] = system: cultured human liver (HepG2) cells

With COc1cc([C@H]2Oc3cc(-c4cc(=O)c5c(O)cc(O)cc5o4)cc(OC)c3O[C@@H]2CO)ccc1O (racemic) [5′-MHC, 5′-methoxyhydnocarpin] as the compound, how does the “accumulation of berberine in the cells” value [1] read?
Its value is “strong increase”.

For Nc1ncnc2c1ncn2C[C@@H](O)[C@@H](O)C(=O)O [Eritadenine], which “S-adenosylmethionine (SAM):S-adenosylhomocysteine (SAH) ratio in the liver” value (rats) is on record?
The value was “significantly decreased”.

And the “phosphatidylcholine (PC):phosphatidylethanolamine ratio in liver microsomes” value (rats)?
Its value is “significantly decreased”.

And the plasma cholesterol concentration (rats)?
Its plasma cholesterol concentration is “significantly decreased”.

Which “cholesterol biosynthesis / lanosterol 14alpha -demethylase” value [2] does the source give for C/C(C=O)=C\CC[C@@H](C)[C@H]1CC[C@@]2(C)C3=CC[C@H]4C(C)(C)C(=O)CC[C@]4(C)C3=CC[C@]12C [ganoderal A] here?
The value was “inhibit cholesterol biosynthesis”.

Which “cholesterol biosynthesis / lanosterol 14alpha -demethylase” value [2] does the source give for C/C(=C\CC[C@@H](C)[C@H]1CC[C@@]2(C)C3=CC[C@H]4C(C)(C)C(=O)CC[C@]4(C)C3=CC[C@]12C)CO [ganoderol A] here?
Its value is “inhibit cholesterol biosynthesis”.

Which “cholesterol biosynthesis / lanosterol 14alpha -demethylase” value [2] does the source give for C/C(=C\CC[C@@H](C)[C@H]1CC[C@@]2(C)C3=CC[C@H]4C(C)(C)[C@@H](O)CC[C@]4(C)C3=CC[C@]12C)CO [ganoderol B] here?
The value was “inhibit cholesterol biosynthesis”.

Which “change of total cholesterol concentrations” value [3] does the source give for O=C(O)c1cccnc1 [nicotinic acid, Nicotinic acid] here?
Its value is -20 mg/dL.

What about the “decrease of low-density lipoprotein cholesterol levels” value [3] of the same compound?
Its value is 13%.

And the “decrease of the ratio of total cholesterol to HDL-C” value [3]?
The value was 25%.

What about the “decrease of total cholesterol concentrations” value [3] of the same compound?
The value was 9%.

What about the “decrease of triglyceride levels” value [3] of the same compound?
Its value is 20%.

And the “mean change of HDL-C levels” value [3]?
The value was “+6 mg/dl”.

And the “mean increase of HDL-C levels” value [3]?
The value was 18%.

And the “average increase in HDL-C levels” value [4]?
Its value is 20%.

What about the triglyceride levels [4] of the same compound?
The triglyceride levels was “significantly lowers”.

For (−)-epigallocatechin gallate [EGCG], which atherosclerotic lesions [5] is on record?
Its atherosclerotic lesions is “differentially reduces evolving atherosclerotic lesions without influencing established atherosclerosis”.

What about the “cellular cholesterol concentration lowered” value [6] of the same compound?
Its value is 28%.

And the cellular cholesterol synthesis [6]?
The cellular cholesterol synthesis was “significantly lowered”.

And the “increase of LDL receptor binding activity” value [6]?
Its value is 3 fold.

Which “cholesterol biosynthesis / lanosterol 14alpha -demethylase” value [2] does the source give for ganoderic acid here?
Its value is “inhibit cholesterol biosynthesis”.
